Results from patent publication US20060116390A1, “Hepatitis c virus inhibitors” (priority 2003, published 2006).
pIC50: −log10 of the molar value. Read-outs that look alike come from different tables or passages of the source.

Test system: HCV proteins in Rep5.1 cells (replicon cell line)
Experiment: Inhibitory activity of HCV: cell-based ELISA in replicon cell line Rep5.1 (decrease of HCV proteins)
Design: species or system hepatitis C virus
Conditions: Rep5.1 cells, 72 hours with drug
Procedure, shortened: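 HCV protein loss was quantified by ELISA on methanol/acetone-fixed cells 72 h after drug addition, probing with selected HCV-positive human plasma, and IC50 was defined as 50% reduction relative to untreated wells. The cells were Rep5.1 replicon cells cultured in DMEM-10 with 500 μg/ml G418, plated at 5000 per well and dosed with serial dilutions after 4 h attachment.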

[1] = Hepatitis C virus, 72 h, concentration at which 50% of HCV proteins was decreased, Table 2, read-out: IC50
[2] = Hepatitis C virus, 72 h, decrease of HCV proteins measured by HCV antibody, Table 1, read-out: Level (IC50 values classified)
[3] = concentration at which 50% of HCV proteins was decreased, Table 2, read-out: IC50

Structure (SMILES)	pIC50 [1]	pIC50 [2]	pIC50 [3]
CC1=C(C(=O)OCc2ccc(-c3cccs3)s2)C(CF)NC(=S)N1 (stereo not drawn) [62′, 4-fluoromethyl-6-methyl-2-thioxo-1,2,3,4-tetrahydro-pyrimidine-5-carboxylic acid [2,2′]bithiophenyl-5-ylmethyl ester]	5.70	5.00 to 6.00	–
CCCC1=C(C(=O)OCc2ccccc2)CNC(=S)N1 [Compound 25, 6-propyl-2-thioxo-1,2,3,4-tetrahydro-pyrimidine-5-carboxylic acid benzyl ester]	5.70	5.00 to 6.00	–
CCc1ccc(COC(=O)C2=C(C)NC(=S)NC2)s1 [Compound 205, 6-methyl-2-thioxo-1,2,3,4-tetrahydro-pyrimidine-5-carboxylic acid 5-ethyl-thiophen-2-ylmethyl ester]	5.74	5.00 to 6.00	–
CC1=C(C(=O)OCCc2ccc(C)cc2)C(CO)NC(=S)N1 (stereo not drawn) [63″, 4-hydroxymethyl-6-methyl-2-thioxo-1,2,3,4-tetrahydro-pyrimidine-5-carboxylic acid 2-p-tolyl-ethyl ester]	5.80	5.00 to 6.00	–
CC1=C(C(=O)OCCc2ccc(F)cc2)CNC(=S)N1 [Compound 93, 6-methyl-2-thioxo-1,2,3,4-tetrahydro-pyrimidine-5-carboxylic acid 2-(4-fluoro-phenyl)-ethyl ester]	–	–	6.15
CC1=C(C(=O)OCc2ccccc2S(C)(=O)=O)CNC(=S)N1 [Compound 112, 6-methyl-2-thioxo-1,2,3,4-tetrahydro-pyrimidine-5-carboxylic acid 2-methanesulfonyl-benzyl ester]	< 4.00	< 4.70	–
CC1=C(C(=O)OC2CCc3c2csc3Cl)CNC(=S)N1 (stereo not drawn) [21′, 6-methyl-2-thioxo-1,2,3,4-tetrahydro-pyrimidine-5-carboxylic acid 1-chloro-5,6-dihydro-4H-cyclopenta[c]thiophen-4-yl ester]	6.40	> 6.00	–
CC1=C(C(=O)OCCCc2ccsc2)CNC(=S)N1 [Compound 243, 6-methyl-2-thioxo-1,2,3,4-tetrahydro-pyrimidine-5-carboxylic acid 3-thiophen-3-yl-propyl ester]	> 6.40	> 6.00	–
CC1=C(C(=O)OCc2ccc(-c3ccccc3)cc2)CNC(=S)N1 [Compound 22, 6-methyl-2-thioxo-1,2,3,4-tetrahydro-pyrimidine-5-carboxylic acid biphenyl-4-ylmethyl ester]	6.40	> 6.00	–
COC1=C(C(=O)OCc2ccccc2)CNC(=S)N1 [Compound 63, 6-methoxy-2-thioxo-1,2,3,4-tetrahydro-pyrimidine-5-carboxylic acid benzyl ester]	< 4.00	< 4.70	–
CC1=C(C(=O)OCCc2ccc(C)c(F)c2)C(CO)NC(=S)N1 (stereo not drawn) [55″, 4-hydroxymethyl-6-methyl-2-thioxo-1,2,3,4-tetrahydro-pyrimidine-5-carboxylic acid 2-(3-fluoro-4-methyl-phenyl)-ethyl ester]	6.30	> 6.00	–
CC1=C(C(=O)OCCc2ccc(Cl)cc2Cl)C(CO)NC(=S)N1 (stereo not drawn) [43″, 4-hydroxymethyl-6-methyl-2-thioxo-1,2,3,4-tetrahydro-pyrimidine-5-carboxylic acid 2-(2,4-dichloro-phenyl)-ethyl ester]	> 6.40	> 6.00	–
CC1=C(C(=O)OCc2ccc(F)cc2Cl)C(CF)NC(=S)N1 (stereo not drawn) [79′, 4-fluoromethyl-6-methyl-2-thioxo-1,2,3,4-tetrahydro-pyrimidine-5-carboxylic acid 2-chloro-4-fluoro-benzyl ester]	6.00	> 6.00	–
CC1=C(C(=O)OCCc2cccc(Cl)c2)C(COC(=O)OCCS(C)(=O)=O)NC(=S)N1 (stereo not drawn) [84″, 4-(2-methanesulfonyl-ethoxycarbonyloxymethyl)-6-methyl-2-thioxo-1,2,3,4-tetrahydro-pyrimidine-5-carboxylic acid 2-(3-chloro-phenyl)-ethyl ester]	6.05	> 6.00	–
CC1=C(C(=O)OCc2ccc(-c3cc(C(F)(F)F)n(C)n3)s2)CNC(=S)N1 [Compound 222, 6-methyl-2-thioxo-1,2,3,4-tetrahydro-pyrimidine-5-carboxylic acid 5-(1-methyl-5-trifluoromethyl-1H-pyrazol-3-yl)-thiophen-2-ylmethyl ester]	> 6.40	> 6.00	–
CSc1ccccc1COC(=O)C1=C(C)NC(=S)NC1 [Compound 110, 6-methyl-2-thioxo-1,2,3,4-tetrahydro-pyrimidine-5-carboxylic acid 2-methylsulfanyl-benzyl ester]	4.77	5.00 to 6.00	–
COc1cscc1CCOC(=O)C1=C(C)NC(=S)NC1CF (stereo not drawn) [41′, 4-fluoromethyl-6-methyl-2-thioxo-1,2,3,4-tetrahydro-pyrimidine-5-carboxylic acid 2-(4-methoxy-thiophen-3-yl)-ethyl ester]	4.82	4.70 to 5.00	–

Structure (SMILES)	pIC50 [1]	pIC50 [2]	pIC50 [3]
CCCCCCC#CCCOC(=O)C1=C(C)NC(=S)NC1 [Compound 200, 6-methyl-2-thioxo-1,2,3,4-tetrahydro-pyrimidine-5-carboxylic acid dec-3-inyl ester]	–	–	> 6.40
CC1=C(C(=O)OCCc2cc(Cl)ccc2[N+](=O)[O-])C(CO)NC(=S)N1 (stereo not drawn) [54″, 4-hydroxymethyl-6-methyl-2-thioxo-1,2,3,4-tetrahydro-pyrimidine-5-carboxylic acid 2-(5-chloro-2-nitro-phenyl)-ethyl ester]	5.10	5.00 to 6.00	–
CC1=C(C(=O)OCCC2CCCC2)C(CO)NC(=S)N1 (stereo not drawn) [36″, 4-hydroxymethyl-6-methyl-2-thioxo-1,2,3,4-tetrahydro-pyrimidine-5-carboxylic acid 2-cyclopentyl-ethyl ester]	5.52	5.00 to 6.00	–
CCc1ccc(CCOC(=O)C2=C(C)NC(=S)NC2)s1 [Compound 266, 6-methyl-2-thioxo-1,2,3,4-tetrahydro-pyrimidine-5-carboxylic acid 2-(5-ethyl-thiophen-2-yl)-ethyl ester]	6.22	> 6.00	–
CC1=C(C(=O)OC(C)Cc2ccsc2)CNC(=S)N1 (stereo not drawn) [Compound 255, 6-methyl-2-thioxo-1,2,3,4-tetrahydro-pyrimidine-5-carboxylic acid 2-thiophen-3-yl-1-methyl-ethyl ester]	5.70	5.00 to 6.00	–
CC1=C(C(=O)OCc2scc(C)c2Cl)CNC(=S)N1 [Compound 207, 6-methyl-2-thioxo-1,2,3,4-tetrahydro-pyrimidine-5-carboxylic acid 3-chloro-4-methyl-thiophen-2-ylmethyl ester]	6.52	> 6.00	–
CC1=C(C(=O)OC(C)(C)c2ccccc2)CNC(=S)N1 [Compound 27, 6-methyl-2-thioxo-1,2,3,4-tetrahydro-pyrimidine-5-carboxylic acid 1-methyl-1-phenyl-ethyl ester]	4.33	< 4.70	–
COC(=O)CCCCCCCCCOC(=O)C1=C(C)NC(=S)NC1 [Compound 198, 6-methyl-2-thioxo-1,2,3,4-tetrahydro-pyrimidine-5-carboxylic acid 9-methoxycarbonyl-nonyl ester]	5.00	5.00 to 6.00	–
COc1cc(COC(=O)C2=C(C)NC(=S)NC2)cc(OC)c1 [Compound 81, 6-methyl-2-thioxo-1,2,3,4-tetrahydro-pyrimidine-5-carboxylic acid 3,5-dimethoxy-benzyl ester]	5.52	5.00 to 6.00	–
CC1=C(C(=O)OCc2ccc3nc(C)oc3c2)CNC(=S)N1 [Compound 256, 6-methyl-2-thioxo-1,2,3,4-tetrahydro-pyrimidine-5-carboxylic acid 2-methyl-benzoxazol-6-ylmethyl ester]	5.47	5.00 to 6.00	–
CC1=C(C(=O)SCc2ccco2)CNC(=S)N1 [38′, 6-methyl-2-thioxo-1,2,3,4-tetrahydro-pyrimidine-5-carbothioic acid S-furan-2-ylmethyl ester]	6.15	> 6.00	–
CC1=C(C(=O)OCCc2cccc([N+](=O)[O-])c2)CNC(=S)N1 [14′, 6-methyl-2-thioxo-1,2,3,4-tetrahydro-pyrimidine-5-carboxylic acid 2-(3-nitro-phenyl)-ethyl ester]	6.15	> 6.00	–
CC1=C(C(=O)SCCc2ccccc2)C(CO)NC(=S)N1 (stereo not drawn) [62″, 4-hydroxymethyl-6-methyl-2-thioxo-1,2,3,4-tetrahydro-pyrimidine-5-carbothioic acid S-phenethyl ester]	< 4.00	< 4.70	–
COc1ccc(OC)c(COC(=O)C2=C(C)NC(=S)NC2)c1 [Compound 174, 6-methyl-2-thioxo-1,2,3,4-tetrahydro-pyrimidine-5-carboxylic acid 2,5-dimethoxy-benzyl ester]	5.15	5.00 to 6.00	–
CC1=C(C(=O)OCc2cccc(C#N)c2)CNC(=S)N1 [Compound 48, 6-methyl-2-thioxo-1,2,3,4-tetrahydro-pyrimidine-5-carboxylic acid 3-cyano-benzyl ester]	4.52	4.70 to 5.00	–
CC1=C(C(=O)OCc2ccc([N+](=O)[O-])cc2)CNC(=S)N1 [Compound 7, 6-methyl-2-thioxo-1,2,3,4-tetrahydro-pyrimidine-5-carboxylic acid 4-nitro-benzyl ester]	5.60	5.00 to 6.00	–
CC1=C(C(=O)OC2Cc3ccccc3C2)CNC(=S)N1 [Compound 124, 6-methyl-2-thioxo-1,2,3,4-tetrahydro-pyrimidine-5-carboxylic acid indan-2-yl ester]	6.10	> 6.00	–
